Like-named read-outs stand apart in the source and are kept apart here.
Key:
[1] = target: Ec_PhnD; conditions: intrinsic fluorescence, read-out: Dissociation constant (KD); cited from earlier work
[2] = target: Ec_PhnD; conditions: ITC, dash = binding not detected, read-out: Dissociation constant (KD); cited from earlier work
[3] = test system: Prochlorococcus MIT9313; conditions: cited from earlier work
[4] = test system: Synechococcus MITS9220; format: cell-based
Experimental: (§1) For treatment conditions containing alternative P compounds, 50 µM NaH2PO4 was replaced with 50 µM phosphite (Na2HPO3·5H2O) or methylphosphonate. In P-deplete media, an equal volume of water was added instead of a P compound. Experimental cultures were started from mid-logarithmic cultures grown in phosphate-containing PCR-S11 media. A small inoculum (~100 µL) was used to minimise the transfer of phosphate from stock cultures. Four biological replicates were tested for each experimental condition. Growth was regularly monitored via cell counts using a CytoFLEX S flow cytometer. […] Phosphate concentration in all treatment conditions was monitored regularly for the duration of the experiments using a Phosphate Colorimetric kit following the manufacturer’s instructions (Sigma-Aldrich) with a detection limit of 0.5 µM.

[5] = test system: Synechococcus WH8102; format: cell-based
Experimental: as §1

[6] = test system: Prochlorococcus MED4; conditions: cited from earlier work
[7] = target: CC9311_PhnD1; format: binding, Synechococcus sp. CC9311; conditions: read-out: Dissociation constant (KD)
[8] = test system: Prochlorococcus MIT9301; conditions: cited from earlier work
[9] = target: Pm_PtxB; conditions: read-out: Dissociation constant (KD); cited from earlier work
[10] = target: WH8102_PhnD1 (Parasynechococcus marenigrum, UniProt Q7U716); format: binding, Synechococcus sp. WH8102; conditions: read-out: Dissociation constant (KD)
WH8102_PhnD1, sequence (Q7U716 27-306 limits assumed): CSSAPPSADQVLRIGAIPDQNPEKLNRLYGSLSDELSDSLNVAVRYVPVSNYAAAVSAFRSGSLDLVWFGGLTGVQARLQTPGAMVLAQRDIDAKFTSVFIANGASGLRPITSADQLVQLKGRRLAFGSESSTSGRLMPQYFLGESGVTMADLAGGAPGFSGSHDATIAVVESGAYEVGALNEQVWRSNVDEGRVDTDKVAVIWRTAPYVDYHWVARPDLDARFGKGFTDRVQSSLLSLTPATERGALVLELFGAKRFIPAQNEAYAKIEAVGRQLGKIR

| Compound | Kd [1] | Kd [2] | Growth and utilisation of P source [3] | Growth as sole P source ([4]; 50 µM P source, PCR-S11 medium, cell density by flow cytometry) | Growth as sole P source ([5]; 50 µM P source, PCR-S11 medium, cell density by flow cytometry, 49 days) | Growth and utilisation of P source [6] | Kd [7] | Use as sole P source to support growth [8] | Growth as sole P source [4] | Growth as sole P source [5] | Kd [9] | Kd [10] |
| --- | --- | --- | --- | --- | --- | --- | --- | --- | --- | --- | --- | --- |
| NCCP(=O)(O)O [2-AEP, 2-aminoethylphosphonate] | < 50 nM | 100 nM |  |  |  |  |  |  |  |  |  |  |
| O=P(O)(O)O [Pi, inorganic phosphate] |  |  | only able to utilise Pi for their growth | growth seen | growth seen | only able to utilise Pi for their growth |  |  |  |  |  |  |
| phosphite [Pt] |  |  | unable to grow and utilise |  |  | unable to grow and utilise | 1700 ± 900 nM | can use Pt or MPn as the sole P source to support its growth | do not exhibit a clearly defined exponential growth | do not exhibit a clearly defined exponential growth | 2000 nM | 4300 ± 500 nM |
